Measurements: patent US6120762A, “C-terminal peptides of interferon γ” (priority 1998, dated 2000)
“And” between values parts separate entries of the source, which are not always exact repeats. Equal values may be shown once.

System: VSV
Assay type: cell-based, Vesicular stomatitis virus

Human IFNγ was tested, and the “Effect on virus yield” value was “had no effect”.

B1: muIFNγ (protein, UniProt P01580 23-155, looked up)
Interferon gamma: HGTVIESLESLNNYFNSSGIDVEEKSLFLDIWRNWQKDGDMKILQSQIISFYLRLFEVLKDNQAISNNISVIESHLITTFFSNSKAKKDAFMSIAKFEVNNPQVQRQAFNELIRVVHQLLPESSLRKRKRSRC
B1 was tested, and the Virus yield was 1.2 × 10^8 and 1.6 × 10^10.
